This assay has as its target T1, HDAC6 enzyme (Homo sapiens, UniProt Q9UBN7).
T1 construct: transducing full length HDAC6 gene into Sf-9 insect cells; GST; purchased SignalChem; host or cells: Sf-9 insect cells
T1 sequence (Q9UBN7 1-1215): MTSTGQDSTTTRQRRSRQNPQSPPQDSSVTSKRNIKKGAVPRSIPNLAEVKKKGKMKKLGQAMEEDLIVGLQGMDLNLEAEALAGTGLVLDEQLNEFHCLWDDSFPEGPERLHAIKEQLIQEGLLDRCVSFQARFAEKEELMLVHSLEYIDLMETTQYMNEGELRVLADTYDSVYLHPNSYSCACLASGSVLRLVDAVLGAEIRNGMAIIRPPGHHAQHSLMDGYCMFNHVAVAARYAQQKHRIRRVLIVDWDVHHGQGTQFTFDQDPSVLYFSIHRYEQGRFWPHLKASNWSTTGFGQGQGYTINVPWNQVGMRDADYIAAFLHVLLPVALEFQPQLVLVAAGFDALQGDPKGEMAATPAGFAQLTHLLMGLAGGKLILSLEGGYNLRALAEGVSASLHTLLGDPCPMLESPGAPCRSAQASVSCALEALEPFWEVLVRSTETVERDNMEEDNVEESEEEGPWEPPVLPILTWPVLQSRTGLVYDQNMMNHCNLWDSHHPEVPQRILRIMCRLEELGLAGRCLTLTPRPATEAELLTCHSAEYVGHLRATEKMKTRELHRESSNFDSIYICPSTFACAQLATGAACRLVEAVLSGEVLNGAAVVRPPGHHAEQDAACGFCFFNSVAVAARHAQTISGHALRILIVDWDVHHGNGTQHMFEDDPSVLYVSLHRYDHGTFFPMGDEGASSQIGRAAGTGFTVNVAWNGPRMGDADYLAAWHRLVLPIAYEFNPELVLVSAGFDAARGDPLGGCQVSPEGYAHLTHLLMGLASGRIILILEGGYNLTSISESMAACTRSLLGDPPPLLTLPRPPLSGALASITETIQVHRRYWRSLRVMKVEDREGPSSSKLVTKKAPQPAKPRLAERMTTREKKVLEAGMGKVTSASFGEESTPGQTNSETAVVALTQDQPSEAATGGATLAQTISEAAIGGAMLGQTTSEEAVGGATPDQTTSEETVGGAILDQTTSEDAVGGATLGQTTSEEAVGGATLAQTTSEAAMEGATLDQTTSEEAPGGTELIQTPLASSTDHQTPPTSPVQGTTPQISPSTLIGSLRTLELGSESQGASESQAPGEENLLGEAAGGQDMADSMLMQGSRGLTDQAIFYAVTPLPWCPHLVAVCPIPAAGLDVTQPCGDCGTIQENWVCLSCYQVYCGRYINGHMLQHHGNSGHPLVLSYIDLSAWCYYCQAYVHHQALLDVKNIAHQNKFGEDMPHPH
As to the kind of experiment: HDAC6 enzyme inhibitory activity (HDAC-Glo I/II Assay kit). The format is biochemical. The note with it: 10 μM; wells without enzyme = 100% inhibition; read-out: HDAC6 inhibitory rate (%) (10 μM). The procedure, abridged: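 Luminescent HDAC-Glo I/II readout after 20 min room-temperature reaction with substrate-developer, following 60 min compound–enzyme preincubation. Enzyme: full-length HDAC6 from Sf-9 cells, GST-purified; buffer 24 mM Tris-HCl pH 7.5, 0.01% Tween-20, glutathione, salts. Wells lacking enzyme define 100% inhibition.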

As to `O=C1c2cc(-c3nnc(C(F)F)o3)ccc2CN1[C@@H]1CCCC[C@H]1NC(=O)C1(c2ccccc2)CC1` [Example 87, N-((1R,2R)-2-(6-(5-(difluoromethyl)-1,3,4-oxadiazol-2-yl)-1-oxo-1,3-dihydro-2H-isoindol-2-yl)cyclohexyl)-1-phenylcyclopropanecarboxamide], the inhibition at 10 µM was 99%.
Consider `CC(C)(C(=O)N[C@@H]1CCCC[C@H]1N1Cc2ccc(-c3nnc(C(F)F)o3)cc2C1=O)c1ccccc1` [Example 88, N-((1R,2R)-2-(6-(5-(difluoromethyl)-1,3,4-oxadiazol-2-yl)-1-oxo-1,3-dihydro-2H-isoindol-2-yl)cyclohexyl)-2-methyl-2-phenylpropanamide], for which the inhibition at 10 µM is 99%.
For the compound `O=C1c2cc(-c3nnc(C(F)F)o3)ccc2CN1[C@@H]1CCCC[C@H]1NC(=O)C1(c2ccccc2)CCC1` [Example 89, N-((1R,2R)-2-(6-(5-(difluoromethyl)-1,3,4-oxadiazol-2-yl)-1-oxo-1,3-dihydro-2H-isoindol-2-yl)cyclohexyl)-1-phenylcyclobutanecarboxamide], the inhibition at 10 µM was 100%.
The value for `O=C1c2cc(-c3nnc(C(F)F)o3)ccc2CN1[C@@H]1CCCC[C@H]1NC(=O)C1(c2ccccc2)COC1` [Example 90, N-((1R,2R)-2-(6-(5-(difluoromethyl)-1,3,4-oxadiazol-2-yl)-1-oxo-1,3-dihydro-2H-isoindol-2-yl)cyclohexyl)-3-phenyloxetane-3-carboxamide] was 100%.
As to `O=C(N[C@@H]1CCCC[C@H]1N1Cc2ccc(-c3nnc(C(F)F)o3)cc2C1=O)C1COC1` [Example 91, N-((1R,2R)-2-(6-(5-(difluoromethyl)-1,3,4-oxadiazol-2-yl)-1-oxo-1,3-dihydro-2H-isoindol-2-yl)cyclohexyl)oxetane-3-carboxamide], the inhibition at 10 µM came to 100%.
The value for `CCC1(C(=O)N[C@@H]2CCCC[C@H]2N2Cc3ccc(-c4nnc(C(F)F)o4)cc3C2=O)COC1` [Example 92, N-((1R,2R)-2-(6-(5-(difluoromethyl)-1,3,4-oxadiazol-2-yl)-1-oxo-1,3-dihydro-2H-isoindol-2-yl)cyclohexyl)-3-ethyloxetane-3-carboxamide] was 101%; that for `O=C(N[C@@H]1CCCC[C@H]1N1Cc2ccc(-c3nnc(C(F)F)o3)cc2C1=O)[C@@H]1CCCO1` [Example 93, (2S)-N-((1R,2R)-2-(6-(5-(difluoromethyl)-1,3,4-oxadiazol-2-yl)-1-oxo-1,3-dihydro-2H-isoindol-2-yl)cyclohexyl)tetrahydrofuran-2-carboxamide] was 100%.
The value for `O=C(N[C@@H]1CCCC[C@H]1N1Cc2ccc(-c3nnc(C(F)F)o3)cc2C1=O)[C@@H]1CCOC1` [Example 94] was 100%; that for `O=C(N[C@@H]1CCCC[C@H]1N1Cc2ccc(-c3nnc(C(F)F)o3)cc2C1=O)C1CCOCC1` [Example 95, N-((1R,2R)-2-(6-(5-(difluoromethyl)-1,3,4-oxadiazol-2-yl)-1-oxo-1,3-dihydro-2H-isoindol-2-yl)cyclohexyl)tetrahydro-2H-pyran-4-carboxamide] was 96%; that for `Cn1cncc1C(=O)N[C@@H]1CCCC[C@H]1N1Cc2ccc(-c3nnc(C(F)F)o3)cc2C1=O` [Example 96, N-((1R,2R)-2-(6-(5-(difluoromethyl)-1,3,4-oxadiazol-2-yl)-1-oxo-1,3-dihydro-2H-isoindol-2-yl)cyclohexyl)-1-methyl-1H-imidazole-5-carboxamide] was 98%.
The value for `Cn1cc(C(=O)N[C@@H]2CCCC[C@H]2N2Cc3ccc(-c4nnc(C(F)F)o4)cc3C2=O)cn1` [Example 97, N-((1R,2R)-2-(6-(5-(difluoromethyl)-1,3,4-oxadiazol-2-yl)-1-oxo-1,3-dihydro-2H-isoindol-2-yl)cyclohexyl)-1-methyl-1H-pyrazole-4-carboxamide] was 100%.
As for `O=C(N[C@@H]1CCCC[C@H]1N1Cc2ccc(-c3nnc(C(F)F)o3)cc2C1=O)c1ccccc1` [Example 98, N-((1R,2R)-2-(6-(5-(difluoromethyl)-1,3,4-oxadiazol-2-yl)-1-oxo-1,3-dihydro-2H-isoindol-2-yl)cyclohexyl)benzamide], the inhibition at 10 µM worked out at 101%.
With `O=C(N[C@@H]1CCCC[C@H]1N1Cc2ccc(-c3nnc(C(F)F)o3)cc2C1=O)c1ccccc1Cl` [Example 99, 2-chloro-N-((1R,2R)-2-(6-(5-(difluoromethyl)-1,3,4-oxadiazol-2-yl)-1-oxo-1,3-dihydro-2H-isoindol-2-yl)cyclohexyl)benzamide], the inhibition at 10 µM is 100%.
Consider `O=C(N[C@@H]1CCCC[C@H]1N1Cc2ccc(-c3nnc(C(F)F)o3)cc2C1=O)c1cccc(Cl)c1` [Example 100, 3-chloro-N-((1R,2R)-2-(6-(5-(difluoromethyl)-1,3,4-oxadiazol-2-yl)-1-oxo-1,3-dihydro-2H-isoindol-2-yl)cyclohexyl)benzamide], for which the inhibition at 10 µM is 100%.
In the case of `O=C(N[C@@H]1CCCC[C@H]1N1Cc2ccc(-c3nnc(C(F)F)o3)cc2C1=O)c1ccc(Cl)cc1` [Example 101, 4-chloro-N-((1R,2R)-2-(6-(5-(difluoromethyl)-1,3,4-oxadiazol-2-yl)-1-oxo-1,3-dihydro-2H-isoindol-2-yl)cyclohexyl)benzamide], the inhibition at 10 µM was 99%.
The value for `O=C(N[C@@H]1CCCC[C@H]1N1Cc2ccc(-c3nnc(C(F)F)o3)cc2C1=O)C1CCC(F)(F)CC1` [Example 102, N-((1R,2R)-2-(6-(5-(difluoromethyl)-1,3,4-oxadiazol-2-yl)-1-oxo-1,3-dihydro-2H-isoindol-2-yl)cyclohexyl)-4,4-difluorocyclohexanecarboxamide] was 96%; that for `C[C@](O)(C(=O)N[C@@H]1CCCC[C@H]1N1Cc2ccc(-c3nnc(C(F)F)o3)cc2C1=O)C(F)(F)F` [Example 103, (2S)-N-((1R,2R)-2-(6-(5-(difluoromethyl)-1,3,4-oxadiazol-2-yl)-1-oxo-1,3-dihydro-2H-isoindol-2-yl)cyclohexyl)-3,3,3-trifluoro-2-hydroxy-2-methylpropanamide] was 98%; that for `C[C@@](O)(C(=O)N[C@@H]1CCCC[C@H]1N1Cc2ccc(-c3nnc(C(F)F)o3)cc2C1=O)C(F)(F)F` [Example 104, (2R)-N-((1R,2R)-2-(6-(5-(difluoromethyl)-1,3,4-oxadiazol-2-yl)-1-oxo-1,3-dihydro-2H-isoindol-2-yl)cyclohexyl)-3,3,3-trifluoro-2-hydroxy-2-methylpropanamide] was 97%.
The value for `O=C(N[C@@H]1CCCC[C@H]1N1Cc2ccc(-c3nnc(C(F)F)o3)cc2C1=O)c1ccccn1` [Example 105, N-((1R,2R)-2-(6-(5-(difluoromethyl)-1,3,4-oxadiazol-2-yl)-1-oxo-1,3-dihydro-2H-isoindol-2-yl)cyclohexyl)pyridine-2-carboxamide] was 98%.
Consider `CC(C)(F)C(=O)N[C@@H]1CCCC[C@H]1N1Cc2ccc(-c3nnc(C(F)F)o3)cc2C1=O` [Example 106, N-((1R,2R)-2-(6-(5-(difluoromethyl)-1,3,4-oxadiazol-2-yl)-1-oxo-1,3-dihydro-2H-isoindol-2-yl)cyclohexyl)-2-fluoro-2-methylpropanamide], for which the inhibition at 10 µM stood at 99%.
`CCCCCCC(=O)N[C@@H]1CCCC[C@H]1N1Cc2ccc(-c3nnc(C(F)F)o3)cc2C1=O` [Example 107, N-((1R,2R)-2-(6-(5-(difluoromethyl)-1,3,4-oxadiazol-2-yl)-1-oxo-1,3-dihydro-2H-isoindol-2-yl)cyclohexyl)heptanamide]: the inhibition at 10 µM amounted to 102%.
Take `O=C1c2cc(-c3nnc(C(F)F)o3)ccc2CN1[C@@H]1CCCC[C@H]1NC(=O)C1(c2ccc(F)cc2)CC1` [Example 108, N-((1R,2R)-2-(6-(5-(difluoromethyl)-1,3,4-oxadiazol-2-yl)-1-oxo-1,3-dihydro-2H-isoindol-2-yl)cyclohexyl)-1-(4-fluorophenyl)cyclopropanecarboxamide]: the inhibition at 10 µM is 100%.

Values taken from patent US10435399B2, “HDAC6 inhibitory heterocyclic compound” (TAKEDA PHARMACEUTICAL COMPANY LIMITED, priority 2017, dated 2019).
